# System: UV-B induced tan
# Experiment: Whitening action: fading of UV-B induced tan on the backs of volunteers (Minolta Chromameter reflectance)
# Type: in vivo, human
# Conditions: FIG. 5; 1% extract or 2% kojic acid in Example 4 cream; 2 mg/cm^2 once a day; nine volunteers
# Description: A comparative study is done to determine the whitening efficacy of an Exophiala mansonii-derived enzyme extract in comparison to the efficacy of a known tyrosinase inhibitor, kojic acid. More specifically, the study was designed to study the lightening effect of these materials (reduction in tanning) using the fading of UV-B induced tan as a marker. Two samples are prepared. The first sample contains the composition described in Example 4. The second sample has the same composition as that described in Example 4 except that 2% kojic acid is substituted for the 1% Exophiala mansonii enzyme extract. Nine volunteers participate in the study. The volunteer panelists are in normal health with no evidence of acute or chronic disease including dermatological problems. […] Tanning is observed for six days after irradiation at which point color measurements are made using a Minolta Chromameter which measures the difference in reflectance of the skin, L. The change in the value of the difference in reflectance, ΔL*, is measured against a baseline skin color value of untreated irradiated skin measured on day 6. […] The observed reflectance values for all the time points are recorded, and the area under the curve for each test site was calculated. The Whitening Factor is calculated as the area under the curve of the treated site subtracted from the untreated site, and is shown in FIG. 5.
smiles,measurement,value
O=c1cc(CO)occ1O [kojic acid],Whitening Factor (area under the curve of the treated site subtracted from the untreated site),1.8

# Source: patent US20090081143A1, “Extracts From Black Yeast For Whitening Skin” (priority 2007, published 2009)
